In brackets after ≈: the same amount, converted by molar mass. Where two headings read alike, the source gives them in different places. Marks after values point to notes of the source that are not given here.

This is an account of results in article PMC4058456, “Jacobsen Catalyst as a Cytochrome P450 Biomimetic Model for the Metabolism of Monensin A” (BioMed Research International, 2014).

Data set [1] relates to Staphylococcus aureus ATCC 25923. As to the kind of experiment: Antimicrobial bioassay, minimal bactericidal concentration (MTT). It is filed as cell-based. The settings on record: for MBC: Staphylococcus aureus. The method, then:
(§1) The bioassays were carried out using the strains Staphylococcus aureus ATCC 25923, Staphylococcus aureus ATCC 43300 (MRSA-methicillin resistant), Staphylococcus epidermidis ATCC 14990, Pseudomonas aeruginosa ATCC 27853, and Escherichia coli ATCC 25922 all acquired from the American Type Culture Collection (ATCC). Approximately 5 × 10^5 microorganisms·mL^−1 were incubated in Muller Hinton broth in 96-well microtiter plates containing the samples to be tested. The compounds (monensin A, metabolite 1, and metabolite 2) were dissolved in dimethylsulfoxide (DMSO) and diluted into the medium to give 100, 50, 25, 12.5, 6.3, 3.1, 1.6, 0.8, 0.4, 0.2, 0.1, and 0.05 μg·mL^−1, as their final concentrations. The plates were incubated at 37°C and the bioassays were performed in triplicate. The cell death was determined by a MTT colorimetric method which was described by Andrews and Furtado et al.. The DMSO solution and chloramphenicol were used as controls of the experiment.

Data set [2] relates to Pseudomonas aeruginosa ATCC 27853. The description is as above. The data set is classed as cell-based. The method, then:
as §1

Data set [3] has as its system Staphylococcus epidermidis ATCC 14990. The description is as above. The data set is classed as cell-based. The method, then:
as §1

Data set [4] relates to Escherichia coli ATCC 25922. The description is as above. The data set is classed as cell-based. The method, then:
as §1

Data set [5] deals with Staphylococcus aureus ATCC 43300 (MRSA-methicillin resistant). The description is as above. It is filed as cell-based. The settings on record: for MBC: Staphylococcus aureus, read-out: Minimal bactericidal concentration. The protocol:
as §1

Data set [6] concerns rat liver mitochondria. The data set is described as follows: Mitochondrial swelling (apparent absorbance at 540 nm). The settings on record: 1 μM. The method, then: (§2) Monensin A was diluted in ethanol to concentrations 0.01, 0.1, and 1 μM. All assays were performed in three replicates. Rat liver mitochondria were isolated by standard differential centrifugation according to Pereira et al. and the mitochondrial protein content was determined by the biuret method.
Mitochondrial swelling was estimated from the decrease in apparent absorbance at 540 nm performed with a Model DU-70 spectrophotometer (Beckman). The mitochondria were incubated using 30°C in 2 mL of the standard reaction medium.

The test system of data set [7] is rat liver mitochondria. The data set is described as follows: Mitochondrial membrane potential (safranin-o fluorescence). The note with it: 1 μM. The protocol:
as §2
Mitochondrial Membrane potential (ΔΨ) was monitored spectrofluorimetrically using 10 μM safranin-o as a probe in a F-4500 spectrofluorometer (Hitachi) with the 495/586 nm excitation/emission wavelength pair. The mitochondria (1.0 mg protein·mL^−1) were incubated at 30°C in 2 mL of the standard reaction medium containing 125 mM sucrose, 65 mM KCl, and 10 mM HEPES-KOH, and CCCP (carbonyl cyanide 3-chlorophenylhydrazone) was added at the end of each experiment for the complete dissipation of the membrane potential.

The test system of data set [8] is rat liver mitochondria. As to the kind of experiment: Mitochondrial respiration (oxygen consumption, Clark-type electrode). The note with it: 1 μM. The method, then:
as §2
Mitochondrial respiration was monitored polarographically with an oxygraph (Hansatech) equipped with a Clark-type oxygen electrode. The mitochondria (1.0 mg protein) were incubated at 30°C in 1 mL of the respiratory medium containing 125 mM sucrose, 65 mM KCl, 10 mM HEPES-KOH, 0.5 mM EGTA, and 10 mM K2HPO4; pH 7.2. 5 mM glutamate and malate were used as the oxidizable substrates for complex I; and mitochondrial oxidative phosphorylation (state 3) was initiated using 400 nmol ADP.

The test system of data set [9] is rat liver mitochondria. As to the kind of experiment: Mitochondrial ROS production (H2DCFDA). The note with it: 1 μM. The method, then: as §2
Mitochondrial reactive oxygen species (ROS) production was monitored spectrofluorimetrically with 2′,7′-dichlorodihydrofluorescein diacetate (H2DCFDA) with the 503/529 nm excitation/emission wavelength pair, both using the standard reaction medium.

The test system of data set [10] is S. epidermidis ATCC 12228. On the set-up: method as in PMID 23509771. The note with it: cited from earlier work.
A short description of data set [11]: Biomimetic oxidation of monensin A catalysed by Jacobsen catalyst (CYP450 model), HPLC-ESI-MS. It is filed as in vitro ADME. The settings on record: catalyst:oxidant:monensin A 1:20:20, CH2Cl2, room temperature, 24 h. The method, then:
Based on the previous studies by this laboratory, the oxidation reactions were performed in an Eppendorf tube (2 mL), under mechanical stirring (Vibrax VXR agitator) at room temperature for 24 h. The ideal molar ratio obtained for the reaction was 1 : 20 : 20 (for catalyst : oxidant : monensin A). This was achieved by adding 0.3 mmol·L^-1 : 6 mmol·L^-1 : 6 mmol·L^−1 in the 0.5 mL of reaction medium (CH2Cl2). The oxidants were m-CPBA, PhIO, t-BOOH, and H2O2. The products from monensin A oxidation were analyzed by HPLC-ESI-MS. Control reactions were carried out in the absence of catalyst under the same conditions as the catalytic runs and no products were detected.
LC-ESI-MS analyses were performed on a Varian LC-MS 1200L triple quadrupole apparatus coupled to a mass spectrometer with ESI ionization in the positive mode (Varian Medical Systems Inc., Palo Alto, CA). The chromatographic analysis was performed using an injection volume of 10 μL, sample concentration 50 μg·mL^−1 in an Xterra analytical column MS C-18 (150 × 2.1 mm, 5 μm) (Waters) and following gradient (MeOH : H2O): 0.1 min 70% MeOH, 20.0 min 98% MeOH, 21.0 min 30% MeOH, and 30.0 min 70% MeOH. The MS conditions were capillary voltage 3.2 kV, cone voltage 40 V, source temperature 40°C, and N2 desolvation temperature 350°C. The percentage of monensin A oxidation was determined by using a calibration curve of 10–100 μg·mL^−1. The resulting mass spectra were monitored over a m/z range of 610 to 800.

The subject of data set [12] is S. epidermidis ATCC 35984. The arrangement: method as in PMID 23509771. The settings on record: cited from earlier work.
A further data set relates to S. aureus ATCC 25923. On the set-up: method as in PMID 23509771. The note with it: cited from earlier work.
Another data set has as its system Streptococcus faecalis. On the set-up: method as in PMID 17702333. The note with it: turbidimetric assay against Streptococcus faecalis; cited from earlier work.
A further data set deals with Bacillus subtilis. On the set-up: method as in PMID 17702333. The settings on record: bioautography against Bacillus subtilis; cited from earlier work.
The mark [13] stands for this setting: ATCC25923, S. aureus ATCC 25923, read-out: Minimal bactericidal concentration.
The mark [14] stands for this setting: ATCC27853, P. aeruginosa ATCC 27853, read-out: Minimal bactericidal concentration.
The mark [15] stands for this setting: ATCC14990, S. epidermidis ATCC 14990, read-out: Minimal bactericidal concentration.
Where [16] appears, read: ATCC25922, E. coli ATCC 25922, read-out: Minimal bactericidal concentration.
Setting [17] is: isolated rat liver mitochondria 1.0 mg protein·mL−1.

`O=C(N[C@H](CO)[C@H](O)c1ccc([N+](=O)[O-])cc1)C(Cl)Cl` [Chloramphenicol, chloramphenicol, reference compound]: the MBC in data set [1] (setting [13]) stood at 6.3 µg/mL (≈ 19.5 µM); in data set [2] (setting [14]), 100 µg/mL (≈ 309 µM); in data set [3] (setting [15]) it was 6.3 µg/mL (≈ 19.5 µM); in [4] (setting [16]), 3.1 µg/mL (≈ 9.59 µM); in data set [5] (S. aureus ATCC 43300 (MRSA)), 8.3 µg/mL (≈ 25.7 µM).
As for `CCC1(C2OC(C3OC(O)(CO)C(C)C(O)C3C)CC2C)CCC(C2(C)CCC3(CC(O)C(C)C(C(C)C(OC)C(C)C(=O)O)O3)O2)O1` (centres unmarked) [Product 2, 12-hydroxy monensin A], in the data set on rat liver mitochondria [6], the “effect on mitochondrial swelling (in words)” value was “no effect”. Further, the “effect on mitochondrial membrane potential (in words)” value in the data set with rat liver mitochondria [7] is “no effect”. Also, the Minimal bactericidal concentration in data set [1] (S. aureus ATCC 25923) and in data set [5] (S. aureus ATCC 43300 (MRSA)) was greater than 100 µg/mL in each case. For the same compound, the MBC in data set [1] (setting [13]), in [2] (setting [14]), in [3] (setting [15]), in [4] (setting [16]) and in data set [5] (S. aureus ATCC 43300 (MRSA)) was greater than 100 µg/mL throughout. For the same compound, the “effect on mitochondrial respiratory parameters (in words)” value in the data set with rat liver mitochondria [8] was “none of these detrimental effects”. Besides, in the data set on rat liver mitochondria [8] (setting [17]), the “ADP/O (phosphorylation efficiency)” value was 2.728 ± 0.06^a. The “RCR (respiratory control ratio)” value in the data set with rat liver mitochondria [8] (setting [17]) was 6.786 ± 0.15^a. Further, the “V3 (state 3 respiration rate)” value in the data set with rat liver mitochondria [8] (setting [17]) is recorded as 66.730 ± 1.95^a nmol O2/mg protein/min. Besides, the “V4 (state 4 respiration rate)” value with rat liver mitochondria [8] (setting [17]) was 9.832 ± 0.07^a nmol O2/mg protein/min. The “effect on mitochondrial ROS accumulation (in words)” value in the data set with rat liver mitochondria [9] is “no effect”.
For the compound `CC[C@@]1([C@@H]2O[C@@H]([C@H]3O[C@@](O)(CO)[C@H](C)C[C@@H]3C)C[C@@H]2C)CC[C@H]([C@]2(C)CC[C@]3(C[C@H](O)[C@@H](C)[C@@H]([C@@H](C)[C@@H](OC)[C@H](C)C(=O)O)O3)O2)O1` [Monensin A], the antimicrobial activity concentration in data set [10] is 2.9 µg/mL; in data set [12], 5.8 µg/mL; in the data set on S. aureus ATCC 25923, 2.9 µg/mL. Further, in the data set with rat liver mitochondria [6] (rat), the “mitochondrial swelling, effect on the apparent turbidity” value was found to be 54.61%. The monensin conversion in [11] (oxidant H2O2) amounted to 26%; in data set [11] (oxidant PhIO), 36%; in data set [11] (oxidant m-CPBA) it was 27%; in data set [11] (oxidant t-BOOH), 14%. In addition, in the data set on rat liver mitochondria [7] (rat), the “decrease on the mitochondrial membrane potential” value amounted to 23.29%. Also, the MBC was 3.1 µg/mL (≈ 4.62 µM) in [1] (setting [13]); greater than 100 µg/mL in [2] (setting [14]); 25 µg/mL (≈ 37.3 µM) in data set [3] (setting [15]); greater than 100 µg/mL in data set [4] (setting [16]); 6.3 µg/mL (≈ 9.39 µM) in data set [5] (S. aureus ATCC 43300 (MRSA)). The “ADP/O (phosphorylation efficiency)” value in the data set on rat liver mitochondria [8] (rat, pH 7.2) is 1.498 ± 0.01^b. Also, the “RCR (respiratory control ratio)” value with rat liver mitochondria [8] (rat, pH 7.2) is 4.548 ± 0.16^b. Moreover, in the data set on rat liver mitochondria [8] (rat, pH 7.2), the “V3 (state 3 respiration rate)” value is 64.097 ± 2.35^a nmol O2/mg protein/min. Also, in the data set with rat liver mitochondria [8] (rat, pH 7.2), the “V4 (state 4 respiration rate)” value is listed as 14.12 ± 0.97^b nmol O2/mg protein/min. Moreover, the “decrease of respiratory control ratio (RCR)” value in the data set with rat liver mitochondria [8] (rat, pH 7.2) stood at 32.59%. The “increase of state 4 of oxygen consumption” value in the data set with rat liver mitochondria [8] (rat, pH 7.2) worked out at 44.11%. In addition, the “reduction in ADP/O” value with rat liver mitochondria [8] (rat, pH 7.2) stood at 47.73%. Besides, the “increase in accumulation of free radicals (ROS)” value with rat liver mitochondria [9] (rat) is 12.14%.
In the case of `CCC1(C2OC(C3OC(O)(CO)C(C)CC3C)CC2C)CCC(C2(C)CCC3(CC(O)C(C)C(C(C)C(O)C(C)C(=O)O)O3)O2)O1` (centres unmarked) [Product 1, 3-O-demethyl monensin A], the “effect on mitochondrial swelling (in words)” value in the data set on rat liver mitochondria [6] is on record as “no effect”. Moreover, the “antimicrobial activity relative to monensin” value with Streptococcus faecalis and with Bacillus subtilis was 5% in each case. For the same compound, in the data set with rat liver mitochondria [7], the “effect on mitochondrial membrane potential (in words)” value is on record as “no effect”. For the same compound, the figures for the Minimal bactericidal concentration in data set [1] (S. aureus ATCC 25923) and in [5] (S. aureus ATCC 43300 (MRSA)) were 25.0 µg/mL (≈ 38.1 µM) and 50.0 µg/mL (≈ 76.1 µM), respectively. In addition, the MBC was 25 µg/mL (≈ 38.1 µM) in [1] (ATCC25923, read-out: Minimal bactericidal concentration); greater than 100 µg/mL in [2] (ATCC27853, read-out: Minimal bactericidal concentration); greater than 100 µg/mL in data set [3] (ATCC14990, read-out: Minimal bactericidal concentration); greater than 100 µg/mL in data set [4] (ATCC25922, read-out: Minimal bactericidal concentration); 50 µg/mL (≈ 76.1 µM) in data set [5]. The “effect on mitochondrial respiratory parameters (in words)” value with rat liver mitochondria [8] is listed as “none of these detrimental effects”. Besides, the “ADP/O (phosphorylation efficiency)” value with rat liver mitochondria [8] (setting [17]) is recorded as 2.757 ± 0.09^a. In addition, the “RCR (respiratory control ratio)” value with rat liver mitochondria [8] (setting [17]) is recorded as 6.623 ± 0.27^a. In addition, the “V3 (state 3 respiration rate)” value with rat liver mitochondria [8] (setting [17]) is listed as 66.363 ± 2.29^a nmol O2/mg protein/min. Moreover, the “V4 (state 4 respiration rate)” value in the data set on rat liver mitochondria [8] (setting [17]) is listed as 10.02 ± 0.11^a nmol O2/mg protein/min. Moreover, in the data set on rat liver mitochondria [9], the “effect on mitochondrial ROS accumulation (in words)” value is listed as “no effect”.
